Test results reported in US9676723B2, “Factor XIa inhibitors” (Merck Sharp & Dohme Corp., priority 2014, dated 2017).
Structures can show the parent of a compound that is named as a salt.

Each compound was assayed against T1, human Factor XIa (Homo sapiens, UniProt P03951) (assay: Factor XIa Assay (fluorogenic substrate Z-Gly-Pro-Arg-AFC hydrolysis)). Details: purified human Factor XIa 40 pM; substrate Z-Gly-Pro-Arg-AFC 100 μM; 50 mM HEPES pH 7.4; read-out: hu Factor XIa Ki.
T1 construct: purified human Factor XIa; purchased Sekisui Diagnostics
T1 sequence (P03951 388-625 limits assumed): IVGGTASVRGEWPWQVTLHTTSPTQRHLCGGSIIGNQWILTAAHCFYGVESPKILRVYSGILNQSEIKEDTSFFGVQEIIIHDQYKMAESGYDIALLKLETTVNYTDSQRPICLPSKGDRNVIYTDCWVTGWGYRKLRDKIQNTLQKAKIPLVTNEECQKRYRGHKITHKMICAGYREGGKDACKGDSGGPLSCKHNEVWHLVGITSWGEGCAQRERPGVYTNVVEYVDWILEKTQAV
T1 sequence (P03951 19-387 partner limits assumed): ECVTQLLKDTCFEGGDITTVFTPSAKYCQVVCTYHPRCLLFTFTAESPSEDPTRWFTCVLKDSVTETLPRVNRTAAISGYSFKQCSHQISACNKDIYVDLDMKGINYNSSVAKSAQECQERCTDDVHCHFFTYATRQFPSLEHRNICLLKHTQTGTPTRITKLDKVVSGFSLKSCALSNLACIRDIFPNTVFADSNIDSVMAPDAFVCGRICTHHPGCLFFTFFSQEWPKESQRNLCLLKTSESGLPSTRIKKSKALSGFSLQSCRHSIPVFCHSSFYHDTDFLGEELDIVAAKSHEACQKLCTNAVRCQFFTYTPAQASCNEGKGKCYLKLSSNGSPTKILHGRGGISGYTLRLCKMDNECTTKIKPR
Type: biochemical
Method: The effectiveness of compounds of the present invention as inhibitors of Coagulation Factor XIa can be determined using a relevant purified serine protease, and an appropriate synthetic substrate. The rate of hydrolysis of the chromogenic or fluorogenic substrate by the relevant serine protease was measured both in the absence and presence of compounds of the present invention. Assays were conducted at room temperature or at 37° C. […] A decrease in the rate of fluorescence change in the presence of inhibitor is indicative of enzyme inhibition. Such methods are known to one skilled in the art. The results of this assay are expressed as the inhibitory constant, Ki.
Factor XIa determinations were made in 50 mM HEPES buffer at pH 7.4 containing 150 mM NaCl, 5 mM CaCl2, and 0.1% PEG 8000 (polyethylene glycol; JT Baker or Fisher Scientific). Determinations were made using purified human Factor XIa at a final concentration of 40 pM (Sekisui Diagnostics) and the synthetic substrate, Z-Gly-Pro-Arg-AFC, TFA salt (Sigma #C0980) at a concentration of 100 μM.
Activity assays were performed by diluting a stock solution of substrate at least tenfold to a final concentration ≦0.1 Km into a solution containing enzyme or enzyme equilibrated with inhibitor. Times required to achieve equilibration between enzyme and inhibitor were determined in control experiments. Initial velocities of product formation in the absence (Vo) or presence of inhibitor (Vi) were measured. Assuming competitive inhibition, and that unity is negligible compared Km/[S], [I]/e, and [I]/e (where [S], [I], and e respectively represent the total concentrations, of substrate, inhibitor and enzyme), the equilibrium constant (Ki) for dissociation of the inhibitor from the enzyme can be obtained from the dependence of Vo/Vi on [I] shown in the following equation. Vo/Vi=1+[I]/Ki
Compound NCc1ccc2c(c1)CCN([C@@H](Cc1ccccc1)C(=O)Nc1ccc(C(=O)O)cc1)C2=O [Example 1, 4-({(2S)-2-[6-(aminomethyl)-1-oxo-3,4-dihydroisoquinolin-2(1H)-yl]-3-phenylpropanoyl}amino)benzoic acid trifluoroacetate] has a Ki of 44 nM.
With COC(=O)Nc1ccc(-c2cnc([C@H](Cc3ccccc3)N3CCc4cc(CN)ccc4C3=O)[nH]2)cc1 [Example 2, (S)-METHYL (4-(2-(1-(6-(AMINOMETHYL)-1-OXO-3,4-DIHYDROISOQUINOLIN-2(1H)-YL)-2-PHENYLETHYL)-1H-IMIDAZOL-5-YL)PHENYL)CARBAMATE 2,2,2-TRIFLUOROACETATE] the Ki was 116 nM.
NCc1ccc2c(c1)CN([C@@H](Cc1ccccc1)C(=O)Nc1ccc(C(=O)O)cc1)C2=O [Example 3] showed a Ki of 308 nM.
Compound NCc1ccc2c(c1)CCN(C(Cc1ccccc1)C(=O)Nc1ccc(C(=O)O)cc1)C2=O (centres unmarked) [Example 4] has a Ki of 176 nM.
NCc1ccc2c(c1)CCN([C@@H](Cc1ccccc1)c1ncc(-c3ccc(C(=O)O)s3)[nH]1)C2=O [Example 5] gave a Ki of 546 nM.
In the case of COC(=O)Nc1ccc(-c2[nH]c([C@H](Cc3ccccc3)N3CCc4cc(CN)ccc4C3=O)nc2Cl)cc1 [Example 6], the Ki is reported as 14 nM.
In the case of NCc1ccc2c(c1)CCN([C@@H](Cc1ccccc1)C(=O)Nc1ccc3[nH]ncc3c1)C2=O [Example 7], the Ki is reported as 246 nM.
For Cc1nc2cc(NC(=O)[C@H](Cc3ccccc3)N3CCc4cc(CN)ccc4C3=O)ccc2s1 [Example 8], the Ki was 907 nM.
NCc1ccc2c(c1)CCN([C@@H](Cc1ccccc1)C(=O)Nc1cccc(F)c1)C2=O [Example 9] showed a Ki of 1080 nM.
NCc1ccc2c(c1)CCN([C@@H](Cc1ccccc1)c1ncc(-c3cccc(F)c3)[nH]1)C2=O [Example 10] was tested, and the Ki was 4130 nM.
For COC(=O)Nc1ccc(-c2[nH]c([C@H](Cc3ccccc3)N3CCc4cc(CN)ccc4C3=O)nc2C)cc1 [Example 11], the Ki was 84 nM.
Compound NCc1ccc2c(c1)CCN([C@@H](Cc1ccccc1)c1ncc(-c3ccc4c(N)n[nH]c4c3)[nH]1)C2=O [Example 12] has a Ki of 53 nM.
Work on NCc1ccc2c(c1)CCN([C@@H](Cc1ccccc1)C(=O)Nc1ccc3c(N)n[nH]c3c1)C2=O [Example 13] yielded a Ki of 151 nM.
Compound CC(C)COC(=O)Nc1ccc(-c2[nH]c([C@H](Cc3ccccc3)N3CCc4cc(CN)ccc4C3=O)nc2Cl)cc1 [Example 14] has a Ki of 435 nM.
In the case of NCc1ccc2c(c1)CCN([C@@H](Cc1ccccc1)c1nc(Cl)c(-c3ccc(NC(=O)OC4CCCC4)cc3)[nH]1)C2=O [Example 15], the Ki is reported as 506 nM.
Compound NCc1ccc2c(c1)CCN([C@@H](Cc1ccccc1)C(=O)Nc1ccc(-c3c[nH]cn3)cc1)C2=O [Example 19] has a Ki of 68.9 nM.
With NCc1ccc2c(c1)CCN([C@@H](Cc1ccccc1)C(=O)Nc1ccc(-c3cc[nH]n3)cc1)C2=O [Example 20] the Ki was 94.3 nM.
For Cc1nnc(-c2ccc(NC(=O)[C@H](Cc3ccccc3)N3CCc4cc(CN)ccc4C3=O)cc2)[nH]1 [Example 21], the Ki was 254 nM.
Cc1ncc(-c2ccc(NC(=O)[C@H](Cc3ccccc3)N3CCc4cc(CN)ccc4C3=O)cc2)o1 [Example 22] was tested, and the Ki was 240 nM.
Cc1ccc(-c2ccc(NC(=O)[C@H](Cc3ccccc3)N3CCc4cc(CN)ccc4C3=O)cc2)o1 [Example 23] was tested, and the Ki was 1080 nM.
Work on NCc1ccc2c(c1)CCN([C@@H](Cc1ccccc1)C(=O)Nc1ccc3ccncc3c1)C2=O [Example 24] yielded a Ki of 1080 nM.
For NCc1ccc2c(c1)CCN([C@@H](Cc1ccccc1)C(=O)Nc1ccc(-c3cnc(C4CC4)o3)cc1)C2=O [Example 25], the Ki was 221 nM.
Work on Cn1ccc(-c2ccc(NC(=O)[C@H](Cc3ccccc3)N3CCc4cc(CN)ccc4C3=O)cc2)n1 [Example 26] yielded a Ki of 207 nM.
Cc1nc2ccc(NC(=O)[C@H](Cc3ccccc3)N3CCc4cc(CN)ccc4C3=O)cc2s1 [Example 27] was tested, and the Ki was 284 nM.
Compound Cc1nsc2ccc(NC(=O)[C@H](Cc3ccccc3)N3CCc4cc(CN)ccc4C3=O)cc12 [Example 28] has a Ki of 1470 nM.
Compound COC(=O)Nc1ccc(-c2cnc([C@H](Cc3ccccc3)N3CCc4c(ccc(CN)c4C4CC4)C3=O)[nH]2)cc1 [Example 29, (S)-methyl (4-(2-(1-(6-(aminomethyl)-5-cyclopropyl-1-oxo-3,4-dihydroisoquinolin-2(1H)-yl)-2-phenylethyl)-1H-imidazol-5-yl)phenyl)carbamate 2,2,2-trifluoroacetate] has a Ki of 198 nM.
